According to a melting point compilation (Tetko et al.; mined from patent text by program, amines drawn as free bases though some values may be those of a salt):

SMILES | melting point
CCCCC1CC(=O)C2(C)CCC3=C4CCC(=O)C=C4CCC3C12 (configuration not stated) | 159 to 161 °C
N#CC(C=N)CC(=O)c1ccccc1 (configuration not stated) | 89 to 90 °C
O=c1cc(-c2ccncn2)nc2n1Cc1ccccc1N2 | 290 to 292 °C
Cn1c(Nc2c(Cl)ccc(CNC(=O)C(C)(C)C)c2Cl)nc2cc(C(=O)N[C@H]3CC[C@H](C(F)(F)F)CC3)c(N3CCC(C(F)(F)F)CC3)nc21 | 185 to 186 °C
Cc1cc(C)nc(N(C(=O)C(Cl)(Cl)Cl)c2ccccc2)n1 | 126 to 127 °C
N#Cc1cc2c(cc1F)OCC21C(=O)N(Cc2ccccc2C(F)(F)F)c2ccccc21 (configuration not stated) | 193 to 195 °C
CC1=C(CC(=O)O)CN(C)N1 | 191 to 192 °C
CNc1nc2ccccc2c2[nH]c3ccccc3c12 | 146 to 147 °C
CC(=O)OC(C)C1CCC2C3CC=C4C=CCCC4(C)C3CCC12C (configuration not stated) | 103 to 104 °C
CC(C)COC(=O)Nc1ccc(C2(O)CCSCC2)cc1 | 150 to 151 °C
Cn1ccnc1Sc1ccccc1[N+](=O)[O-] | 117 to 119 °C
O=C(O)CCCCCc1nc2ccccc2n1-c1ccccc1 | 132 to 133 °C
CCOc1ccc(OCc2ccc(OCc3nc(-c4ccccc4)oc3C)cc2)c(CC(=O)O)c1 | 122 to 123 °C
Cc1nccc2c3ccc(OCC4CCCCC4)cc3n(CC3CCCCC3)c12 | 152 °C
COc1ccc(C(=O)NCCc2ccccc2C)cc1 | 81.8 to 82.1 °C
CC(C)[C@H](NC(=O)OCc1ccccc1)C(=O)c1ccc(OCc2ccccc2)cc1 | 75 to 77 °C
O=Cc1cc(Br)c(Cl)s1 | 61 to 62 °C
CCCCOc1cc(/C=C(\OCC)C(=O)O)ccc1OCCc1ccc(OS(=O)(=O)CCCC)c(OC)c1 | 94 °C
Clc1ccc2nc(Cl)nc(-c3ccccc3Cl)c2c1 | 175 to 176 °C
O=S(=O)(NC(CO)(CO)CO)c1cncc(C#Cc2cnn3c(C(F)(F)F)cc(-c4ccc(C(F)(F)F)cc4)nc23)c1 | 230 to 232 °C
NC(=O)COC(=O)c1ccccc1 | 118 °C
CCOC(=O)c1ccccc1NC(=O)c1oc2nn(C(C)C)c(C)c2c1C | 155 to 158 °C
CC(C)(C)OC(=O)N[C@@]1(C(=O)OC(C)(C)C)CC(=O)[C@H]2[C@H](C(=O)OC(C)(C)C)[C@H]21 | 144 to 146 °C
CCOC(=O)CC(=O)c1ccncn1 | 52.3 °C
C=C(CS(=O)(=O)c1ccc(C)cc1)c1ccccc1 | 103 °C

SMILES | melting point
O=C(c1ccccc1)c1cccnc1-c1nc(Nc2ccc(Cl)cc2)c2ccccc2n1 | 190 to 192 °C
CC(=O)N(C(C)=O)c1c(C#N)cnn1-c1c(F)c(F)c(C)c(F)c1F | 132 to 133 °C
Cc1ccc(C2=NN=CNC2C)cc1 (configuration not stated) | 246 °C
O=C(O)CCC/C=C/c1nn(-c2ccc([N+](=O)[O-])cc2)c2c1CCC2 | 163 to 164 °C
O=[N+]([O-])C(CO)(CO)c1cc(Br)cnc1Cl | 162 to 163 °C
OC(c1ccccc1)c1ccc2nc3ccc(C(O)c4ccccc4)cc3c(-c3ccccc3)c2c1 (configuration not stated) | > 280 °C
CC(=O)Nc1c(C)cc2c(nc3n2CCC3)c1[N+](=O)[O-] | 198 °C
Nc1cc(-n2cccn2)nc(-c2ccc(Cl)o2)n1 | 210 to 211 °C
CCCNC(=NC#N)Nc1cccnc1 | 164 to 165 °C
CC(C)(C)c1cc(-n2nc3ccc(C(F)(F)F)cc3n2)c(O)c(C(C)(C)C)c1 | 131 to 133 °C
CNC(=O)c1cc(OC)c(C(=O)NC)c(NC(=O)CCl)c1OC | 228 to 229 °C
O=C(O)Cc1ccc(CCNS(=O)(=O)c2ccc(F)cc2)cc1 | 192 to 193 °C
CCOCc1cc2cc(Cl)ccc2oc1=Nc1ccc(Cl)cc1 | 126 to 128 °C
O=C(NCc1ccccc1-c1ccccc1C(=O)NCCc1ccccn1)Nc1ccccc1 | 99 °C
Fc1cc(F)c(-c2c(F)nnc(F)c2-c2ccc(Br)cc2)c(F)c1 | 132 to 133 °C
COc1ccc(-c2c(-c3ccc(S(C)(=O)=O)cc3)[nH]c3ccccc23)cc1 | 218 to 220 °C
Fc1cccc(F)c1-c1nc(COc2ccc(Oc3ccc(C(F)(F)F)cc3)cc2)no1 | 83 to 84 °C
CC(C)Cn1cnc2c(N)nc3ccc(-c4ccsc4)cc3c21 | 235 to 236 °C
Cc1cccc2nc(CCl)cn12 | 120 to 121 °C
CCOC(=O)c1c(SCC)cc(C(F)(F)F)nc1C(F)(F)F | 36 to 37.5 °C
CC(=O)N1N=C(c2ccncc2)OC1(C)c1ccccc1 (configuration not stated) | 79 to 81 °C
O=c1n(CCCC2CCCCC2)ccn1-c1ccc([N+](=O)[O-])cc1 | 153 to 156 °C
CC(Cl)(Cl)C(NC(=O)c1cccnc1)NC(=NC#N)Nc1ccc(Cl)nc1 (configuration not stated) | 212 to 213 °C
Cc1ccc(S(=O)(=O)N(C)c2ccc([N+](=O)[O-])cc2C)cc1 | 103 to 104 °C
COC(=O)c1ccc(Cn2c(=O)c(C)c3sc(C(=O)NCc4ccc(F)cc4)cn3c2=O)cc1 | > 215 °C

SMILES | melting point
COC(=O)c1ccc2oc3ccccc3c2c1C(=O)OC | 126 °C
O=C(c1ccccc1)c1cc([N+](=O)[O-])ccc1-n1nc(CO)cc1CO | 145 to 147 °C
N#CN1CCC2(CC1)CN(c1ccccc1Cl)c1ccccc12 | 158 to 160 °C
COc1cc2c(c3c1OC(C)(C)C3)C(c1ccc(=O)n(Cc3ccc(C(N)=O)cc3)c1)=NC(C)(C)C2 | 262 to 266 °C
O=C(O)CC1CCCc2c1n(Cc1ccc(Cl)cc1)c1c(F)cc(F)cc21 (configuration not stated) | 130 to 131 °C
O=C(OCc1ccc(CO)cc1COC(=O)c1ccccc1)c1ccccc1 | 91 to 93 °C
COc1ccc(C2(O)OC(=O)C(c3cc(C)c4nsnc4c3)=C2Cc2cc(OC)c(OC3CCCCC3)c(OC)c2)cc1F (configuration not stated) | 163 to 164 °C
O=[N+]([O-])c1cccc(Cl)c1NCc1ccccc1Cl | 69 to 71 °C
CC(C)c1n[nH]c2c(Nc3cccc(Cl)c3)nc(Cl)nc12 | 257 to 259 °C
CCNC(=S)N1CCN([C@H](C)[C@](O)(Cn2cncn2)c2ccc(F)cc2F)CC1 | 96 to 98 °C
CC(C)c1cccc(C(C)C)c1NC(=O)C1c2ccccc2COc2ccc(C(=O)O)cc21 (configuration not stated) | 289 to 290 °C
CCOC(=O)COc1ccc(C(=O)CCC(=O)O)cc1Cl | 137 to 139 °C
CC(SC1COC(c2ccc3cc(C(=O)Nc4ccc(C#N)cc4)ccc3c2)OC1)C(O)(Cn1cncn1)c1ccc(F)cc1F (configuration not stated) | 114 °C
C[C@H]1N(C(=O)c2ccc(C(F)(F)F)cc2)CC(F)O[C@@]1(Cn1cncn1)c1ccc(Cl)cc1Cl (relative stereo) | 151 to 156 °C
O=C(CCCCCCCCC(=O)N(CCO)CCO)N(CCO)CCO | 87 to 98 °C
COC(=O)c1ccc(-c2ccc(Cl)s2)nc1 | 122 to 124 °C
Nc1nc2c(c(Nc3cccc(F)c3)n1)-c1ccccc1C2 | 199 to 200 °C
COc1ccc(S(=O)(=O)c2cc3c(cc2C)OC(C(=O)O)O3)cc1NC(C)=O (configuration not stated) | 230 °C
CCOC(=O)c1ccc(Cc2ccc(O)cc2)cn1 | 153 to 156 °C
O=C(Nc1ccc(CO)cc1)C1=Cc2cc(-c3ccccc3)ccc2CC1 | 207 to 210 °C
CN(C)CC(=O)N(C)c1cccc(-c2ccnc3c(C(=O)c4ccccc4)cnn23)c1 | 166 to 168 °C
CC(=O)CCC(CC=O)C(C)(C)OC(C)=O (configuration not stated) | 24 °C
Nc1nc(-c2cc(Cl)ccc2Cl)nc(N2CCN(c3ccccc3)CC2)n1 | 203 to 206 °C
CC(=O)c1ccc(Oc2ccc(C(C)=O)cc2)cc1 | 102 °C
COc1ccc(N2CCN(c3c(C)c(C)c4c(c3C)C(O)(c3ccsc3)C(C)(C)O4)CC2)cc1 (configuration not stated) | 131 to 133 °C

SMILES | melting point
CCOC(=O)/C(=N\O[C@H]1CC[C@H](C)CC1)c1csc(N)n1 | 133 to 135 °C
CCCCCCCCCCCCNC(=O)c1cc(-c2ccc(OC)cc2)c(OCCO)c(-c2cccc(Cl)c2)c1 | 114 to 117 °C
CCCC(=O)c1cnc2c(C3CO3)cccc2c1Nc1ccccc1C (configuration not stated) | 114 to 116 °C
Cc1ccc(C)c(-c2nn(C(C)(C)C(=O)N(C)C)cc2C)c1 | 93 to 95 °C
N#Cc1ccccc1-c1ccc(CC(NC(=O)Nc2ccccc2S(=O)(=O)N2CCCCC2)C(=O)O)cc1 (configuration not stated) | 140 °C
COC(=O)c1ccc(Cn2c(C=Cc3ccc(OC)c(OC)c3)nc3c(OC)c(C)c(C)c(OC)c32)cc1 | 111 to 114 °C
CCNC(=O)c1ccc(-n2nnc(C(=O)NC3CC3)c2CNCc2ccccc2)cc1 | 153 °C
C[C@@H]1CNC[C@H](C)N1Cc1ccc(COc2cccc3c2CN(C2CCC(=O)NC2=O)C3=O)cc1 (some centres not stated) | 253 to 255 °C
CC1=CCCC2C1(C)CCC(C)C2(C)Cc1cc(O)ccc1O (configuration not stated) | 146 to 148 °C
CC1Oc2ccc(OCc3nc4cc(F)ccc4s3)cc2C(=O)C1Cc1cccc(NS(=O)(=O)C(F)(F)F)c1 (configuration not stated) | 183 to 185 °C
O=c1nc(N2CCc3ccccc3C2)sc2ncccc12 | 159 to 160 °C
COc1ccc(C(=O)Nc2ccc(C(=O)N3CCOCC3)cc2)cc1C12CC3CC(CC(C3)C1)C2 | 238 to 241 °C
CCOC(=O)c1cn(Cc2ccc(Oc3ccccc3)cc2)nc1OCc1ccc(OCc2nc(-c3ccccc3)oc2C)c(OC)c1 | 127 to 128 °C
O=C1CC(c2ccccc2)Cc2occ(C(F)(F)F)c21 (configuration not stated) | 107 to 108 °C
CC(C)/[N+]([O-])=C/c1ccccc1O | 36 to 39 °C
CN(C)c1ccc(-c2nnc(N3CCC(O)CC3)nc2-c2ccc(N(C)C)cc2)cc1 | 186 to 188 °C
N#Cc1ccc(-c2cc(=O)c3cccnc3o2)cc1 | 250 to 252 °C
OC1CCCC(n2c(NC3CC3)nc3cc(Cl)c(Cl)cc32)C1O (configuration not stated) | > 25 °C
CC1COc2c(N3CC(N)C(C(F)F)C3)c(F)cc3c(=O)c(C(=O)O)cn1c23 (configuration not stated) | 247 to 252 °C
COc1cccc(P2(=O)c3ccccc3CN2c2ccccc2)c1 (configuration not stated) | 170 to 172 °C
Clc1ccc(Nc2nnc(-c3cccc(Oc4ccc(Cl)c(Cl)c4)c3)s2)cc1Cl | 189 to 190 °C
Nc1nc2ccccc2c2c1ncn2CC1(O)CCC1 | > 250 °C
